# From ChEMBL document CHEMBL4257490, “Development of a peptide-based bifunctional chelator conjugated to a cytotoxic drug for the treatment of melanotic melanoma” (Medchemcomm, 2018)
# Active and inactive are the calls of the source. The calls are words filed in the database; no cut-off is given here.
# What was measured:
# B16-F10 [1] = experiment: Cytotoxicity against mouse B16F10 cells assessed as decrease in cell viability after 72 hrs by MTT assay; assay type: functional, cell-based; details: B16-F10, 72 h
# B16-F10 [2] = experiment: Induction of apoptosis in mouse B16F10 cells at IC50 after 72 hrs by annexin V-FITC/propidium iodide staining-based flow cytometric method relative to control; assay type: functional
# B16-F10 [3] = experiment: Induction of apoptosis in mouse B16F10 cells assessed as necrotic cells at IC50 after 72 hrs by annexin V-FITC/propidium iodide staining-based flow cytometric method relative to control; assay type: functional
# B16-F10 [4] = experiment: Induction of apoptosis in mouse B16F10 cells assessed as nuclear fragmentation at IC50 after 72 hrs by DAPI staining-based fluorescence microscopic method; assay type: functional, cell-based
# B16-F10 [5] = experiment: Antitumor activity against mouse B16F10 cells allografted in Balb/c mouse assessed as tumor growth inhibition at 25 mg/kg, iv administered thrice weekly for 21 days starting on day 10 post tumor implantation relative to control; assay type: functional; details: read-out: TGI
# Mus musculus = experiment: Toxicity in mouse B16F10 cells allografted Balb/c mouse assessed as effect on body weight at 25 mg/kg, iv administered thrice weekly for 21 days starting on day 10 post tumor implantation (reference value: 30.52 +/- 2.9 g); assay type: organism-based; details: in vivo, 504 h
compound,measurement,setting,value
Nc1ccn([C@@H]2O[C@H](CO)[C@@H](O)C2(F)F)c(=O)n1 [GEMCITABINE],IC50,B16-F10 [1],260 nM
same,Activity,B16-F10 [2],26%
same,Activity,B16-F10 [3],12 - 14%
same,Activity,B16-F10 [4],Active
same,inhibition in vivo at 25 mg/kg,B16-F10 [5],37%
same,Activity,Mus musculus,28.65 g
